ChEMBL document CHEMBL2057184, “Essential structure of opioid κ receptor agonist nalfurafine for binding to the κ receptor 2: synthesis of decahydro(iminoethano)phenanthrene derivatives and their pharmacologies” (Bioorg Med Chem Lett, 2012)

Tests used:
[1] = target: Kappa-type opioid receptor (Cavia porcellus, UniProt P41144); assay: Displacement of [3H]U-69,593 from kappa opioid receptor in guinea pig cerebellum
Mu-type opioid receptor = Mu-type opioid receptor (Mus musculus, UniProt P42866); assay: Displacement of [3H]DAMGO from mu opioid receptor in mouse cerebellum
[2] = target: Delta-type opioid receptor (Mus musculus, UniProt P32300); assay: Displacement of [3H]DPDPE from delta opioid receptor in mouse cerebellum
[3] = Selectivity ratio of Ki for mu opioid receptor in mouse cerebellum to Ki for kappa opioid receptor in guinea pig cerebellum; assay type: tissue-based
[4] = Selectivity ratio of Ki for delta opioid receptor in mouse cerebellum to Ki for kappa opioid receptor in guinea pig cerebellum; assay type: tissue-based

Delta-type opioid receptor, sequence (P32300 whole entry): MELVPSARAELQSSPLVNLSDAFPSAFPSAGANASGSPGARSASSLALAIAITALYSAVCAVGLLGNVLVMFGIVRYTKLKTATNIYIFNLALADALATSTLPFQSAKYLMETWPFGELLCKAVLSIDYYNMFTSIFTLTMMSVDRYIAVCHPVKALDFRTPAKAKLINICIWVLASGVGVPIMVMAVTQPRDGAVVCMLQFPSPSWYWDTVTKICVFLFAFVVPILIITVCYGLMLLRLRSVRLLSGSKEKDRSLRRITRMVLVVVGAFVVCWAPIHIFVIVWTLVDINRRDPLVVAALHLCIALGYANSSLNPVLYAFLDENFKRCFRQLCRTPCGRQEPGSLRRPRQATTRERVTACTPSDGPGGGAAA
Kappa-type opioid receptor, sequence (P41144 whole entry): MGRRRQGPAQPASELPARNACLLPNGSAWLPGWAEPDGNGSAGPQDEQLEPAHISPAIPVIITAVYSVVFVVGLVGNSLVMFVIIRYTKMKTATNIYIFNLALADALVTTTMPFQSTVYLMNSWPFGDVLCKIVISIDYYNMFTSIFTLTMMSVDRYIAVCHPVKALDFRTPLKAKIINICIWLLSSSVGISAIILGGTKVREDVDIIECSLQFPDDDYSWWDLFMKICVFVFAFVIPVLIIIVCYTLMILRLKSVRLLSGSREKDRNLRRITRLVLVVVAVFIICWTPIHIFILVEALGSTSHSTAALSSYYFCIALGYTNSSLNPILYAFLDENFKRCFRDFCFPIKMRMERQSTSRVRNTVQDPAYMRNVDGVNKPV
Mu-type opioid receptor, sequence (P42866 whole entry): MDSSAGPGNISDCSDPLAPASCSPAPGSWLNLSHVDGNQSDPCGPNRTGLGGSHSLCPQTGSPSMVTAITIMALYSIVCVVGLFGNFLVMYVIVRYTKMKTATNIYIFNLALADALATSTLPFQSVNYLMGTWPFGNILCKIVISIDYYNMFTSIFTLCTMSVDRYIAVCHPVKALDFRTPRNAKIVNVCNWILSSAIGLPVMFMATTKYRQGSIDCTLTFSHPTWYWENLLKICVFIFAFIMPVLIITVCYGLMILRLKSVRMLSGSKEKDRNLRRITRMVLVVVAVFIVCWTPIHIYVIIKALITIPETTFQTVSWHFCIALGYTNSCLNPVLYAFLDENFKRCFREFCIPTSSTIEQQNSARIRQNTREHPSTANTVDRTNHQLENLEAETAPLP

Work on `CN(C(=O)/C=C/c1ccoc1)[C@@H]1CC[C@H]2CN(CC3CC3)CC[C@@H]2C1` yielded a Ki [1] of 19100 nM, a Ki (Mu-type opioid receptor) greater than 100000 nM and a Ki [2] greater than 100000 nM.

In the case of `CN(C(=O)/C=C/c1ccoc1)[C@@H]1CC[C@@]2(O)[C@H]3Cc4cccc5c4[C@@]2(CCN3CC2CC2)[C@H]1O5`, the Ratio Ki [3] is reported as 59.8, the Ki [1] is reported as 2.82 nM and the Ki (Mu-type opioid receptor) is reported as 169 nM. The Ki [2] was greater than 1000 nM.

With `CN[C@@H]1CC[C@@]2(O)[C@H]3CC4=C(CCCC4)[C@@]2(CCN3CC2CC2)C1` the Ki [1] was 352 nM, the Ki (Mu-type opioid receptor) was greater than 1000 nM and the Ki [2] was greater than 1000 nM.

In the case of `CN(C(=O)/C=C/c1ccoc1)[C@@H]1CC[C@H]2[C@H]3CC4=C(CCCC4)[C@@]2(CCN3CC2CC2)C1`, the Ratio Ki [3] is reported as 1.94, the Ki [1] is reported as 12.7 nM and the Ratio Ki [4] is reported as 16.1. For the same molecule, the Ki (Mu-type opioid receptor) was 24.6 nM and the Ki [2] was 204 nM.

In the case of `CN(C(=O)/C=C/c1ccoc1)[C@@H]1CC[C@H]2[C@H]3Cc4ccc(O)c5c4[C@@]2(CCN3CC2CC2)[C@H]1O5`, the Ratio Ki [3] is reported as 1.47, the Ki [1] is reported as 0.35 nM and the Ratio Ki [4] is reported as 25.3. It also gave a Ki (Mu-type opioid receptor) of 0.51 nM and a Ki [2] of 8.82 nM.

`CN(C(=O)/C=C/c1ccoc1)[C@@H]1CC[C@@]2(O)[C@H]3CC4=C(CCCC4)[C@@]2(CCN3CC2CC2)C1` showed a Ratio Ki [3] of 14.7, a Ki [1] of 5.64 nM and a Ratio Ki [4] of 54.5. The Ki (Mu-type opioid receptor) was 83.2 nM and the Ki [2] was 308 nM.

Molecule `O=C1CC[C@@]2(O)[C@H]3CC4=C(CCCC4)[C@@]2(CCN3CC2CC2)C1` has a Ratio Ki [3] of 0.5, a Ki [1] of 787 nM and a Ratio Ki [4] of 1.19. For the same molecule, the Ki (Mu-type opioid receptor) was 391 nM and the Ki [2] was 939 nM.

Molecule `CN(C(=O)/C=C/c1ccoc1)[C@@H]1CC[C@@]2(O)[C@H]3Cc4ccc(O)cc4[C@@]2(CCN3CC2CC2)C1` has a Ratio Ki [3] of 2.42, a Ki [1] of 0.18 nM and a Ratio Ki [4] of 11.8. For the same molecule, the Ki (Mu-type opioid receptor) was 0.43 nM and the Ki [2] was 2.09 nM.
